# Earlier results as cited in US6284774A, “4-Benzyl piperidine alkylsulfoxide heterocycles and their use as subtype-selective NMDA receptor antagonists” (priority 2000, dated 2001).
# How the values were obtained:
# [1] = test system: smooth muscle of the airway; details: cited from earlier work
# [2] = variety of animal models highly predictive of human anxiety; cited from earlier work
Compound,ability to relax the smooth muscle of the airway [1],effectiveness in animal models of anxiety [2]
CNC1(c2ccccc2Cl)CCCCC1=O (centres unmarked) [ketamine],relax the smooth muscle of the airway,–
C[C@]12N[C@H](Cc3ccccc31)c1ccccc12 [MK801],–,effective in a variety of animal models of anxiety
